# Laboratory results from patent publication US12503475B2 (Centessa Pharmaceuticals (UK) Limited, priority 2020, dated 2025).
# Like-named read-outs stand apart in the source and are kept apart here.
# Target: T1, human orexin type 2 receptor (hOX2R) (Homo sapiens, UniProt O43614)
# T1 construct: expressed in transfected cells
# T1 sequence (O43614 1-444): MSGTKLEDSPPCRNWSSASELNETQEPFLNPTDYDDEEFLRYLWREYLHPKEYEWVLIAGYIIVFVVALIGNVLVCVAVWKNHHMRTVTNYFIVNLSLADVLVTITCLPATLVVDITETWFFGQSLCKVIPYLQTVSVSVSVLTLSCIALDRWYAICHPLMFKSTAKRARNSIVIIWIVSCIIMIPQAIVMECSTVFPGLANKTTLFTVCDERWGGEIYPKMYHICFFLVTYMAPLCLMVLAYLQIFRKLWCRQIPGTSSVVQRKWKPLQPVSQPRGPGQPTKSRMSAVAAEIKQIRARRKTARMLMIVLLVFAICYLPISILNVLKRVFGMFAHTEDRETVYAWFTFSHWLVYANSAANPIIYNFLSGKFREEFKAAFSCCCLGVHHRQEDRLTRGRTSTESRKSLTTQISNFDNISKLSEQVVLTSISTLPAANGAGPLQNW
# Assay: Measurement of orexin type 2 receptor agonist activity (FLIPR calcium fluorescence)
# Assay type: cell-based
# Details: for EC50: read-out: hOx2 pEC50 (converted); for Emax: CHO, read-out: hOx2 Emax (%)
# Procedure: The biological activity of the compounds of the present disclosure may be determined in cells stably expressing either orexin type 2 or orexin type 1 receptor. […] The agonist activity of a compound of the present disclosure may be determined by fluorescence value.
# Stable cell line generation.
# Measurement of orexin type 2 receptor agonist activity. […] As used herein, E. indicates the value at 10 μM concentration when orexin A is converted to a full agonist (maximum value of agonist activity. 100%).
# [1] = CHO cells expressing hOX2R, FLIPR calcium fluorescence
SMILES,EC50 [1] [nM],Emax [1] [%],Emax [%]
"O=C(NC[C@@H]1CCO1)N1CC2(CC2)[C@H](NS(=O)(=O)C(F)F)[C@@H]1Cc1cccc(-c2ccccc2)c1F [Compound 368, (6S,7S)-7-((difluoromethyl)sulfonamido)-6-((2-fluoro-[1,1′-biphenyl]-3-yl)methyl)-N-(((S)-oxetan-2-yl)methyl)-5-azaspiro[2.4]heptane-5-carboxamide]",1 to 10,90 to 100,
"O=C([C@H]1CCO1)N1CC2(CC2)[C@H](NS(=O)(=O)C2CC2)[C@@H]1Cc1cccc(-c2cc(F)cc(F)c2)c1F [Compound 223, N-((6S,7S)-5-((R)-oxetane-2-carbonyl)-6-((2,3′,5′-trifluoro-[1,1′-biphenyl]-3-yl)methyl)-5-azaspiro[2.4]heptan-7-yl)cyclopropanesulfonamide]",0.0794 to 1,90 to 100,
"CS(=O)(=O)NC1C(Cc2cccc(-c3ccccc3)c2)N(C(=O)N2CC(F)C2)CC12CC2 (racemic) [Compound 11, N-(6-([1,1′-biphenyl]-3-ylmethyl)-5-(3-fluoroazetidine-1-carbonyl)-5-azaspiro[2.4]heptan-7-yl)methanesulfonamide]",10 to 100,90 to 100,
"O=C(NCC1(F)CC1)N1CC2(CC2)[C@H](NS(=O)(=O)CF)[C@@H]1Cc1cc(F)cc(-c2cc(F)cc(F)c2)c1F [Compound 415, (6S,7S)-N-((1-fluorocyclopropyl)methyl)-7-((fluoromethyl)sulfonamido)-6-((2,3′,5,5′-tetrafluoro-[1,1′-biphenyl]-3-yl)methyl)-5-azaspiro[2.4]heptane-5-carboxamide]",1 to 10,90 to 100,
"C[C@H](F)C(=O)N1CC2(CC2)[C@H](NS(=O)(=O)C(F)F)[C@@H]1Cc1cccc(-c2ccccc2)c1F [Compound 160, 1,1-difluoro-N-((6S,7S)-6-((2-fluoro-[1,1′-biphenyl]-3-yl)methyl)-5-((S)-2-fluoropropanoyl)-5-azaspiro[2.4]heptan-7-yl)methanesulfonamide]",0.0794 to 1,90 to 100,
"CS(=O)(=O)N[C@@H]1[C@H](Cc2cccc(-c3ccccc3)c2F)N(C(=O)[C@H]2CCO2)CC12CC2 [Compound 21, N-((6S,7S)-6-((2-fluoro-[1,1′-biphenyl]-3-yl)methyl)-5-((R)-oxetane-2-carbonyl)-5-azaspiro[2.4]heptan-7-yl)methanesulfonamide]",1 to 10,90 to 100,
"CCS(=O)(=O)N[C@@H]1[C@H](Cc2cccc(-c3ccccc3)c2F)N(C(=O)[C@H](O)COC)CC12CC2 [Compound 344, N-((6S,7S)-6-((2-fluoro-[1,1′-biphenyl]-3-yl)methyl)-5-((R)-2-hydroxy-3-methoxypropanoyl)-5-azaspiro[2.4]heptan-7-yl)ethanesulfonamide]",1 to 10,90 to 100,
"O=C(NCC1(F)CC1)N1CC2(CC2)[C@H](NS(=O)(=O)CF)[C@@H]1Cc1cccc(-c2cc(F)cc(F)c2)c1F [Compound 412, (6S,7S)-N-((1-fluorocyclopropyl)methyl)-7-((fluoromethyl)sulfonamido)-6-((2,3′,5′-trifluoro-[1,1′-biphenyl]-3-yl)methyl)-5-azaspiro[2.4]heptane-5-carboxamide]",1 to 10,90 to 100,
"COC(=O)N1CCC2(CC2)C(NS(C)(=O)=O)C1Cc1cccc(-c2ccccc2)c1 (racemic) [Compound 14, methyl 5-([1,1′-biphenyl]-3-ylmethyl)-4-(methylsulfonamido)-6-azaspiro[2.5]octane-6-carboxylate]",> 1000,90 to 100,
"CC(F)(F)C(=O)N1CC2(CC2)[C@H](NS(=O)(=O)CF)[C@@H]1Cc1cccc(-c2cccc(F)c2)c1F [Compound 179, N-((6S,7S)-6-((2,3′-difluoro-[1,1′-biphenyl]-3-yl)methyl)-5-(2,2-difluoropropanoyl)-5-azaspiro[2.4]heptan-7-yl)-1-fluoromethanesulfonamide]",1 to 10,70 to 80,
"O=C([C@H](O)CF)N1CC2(CC2)[C@H](NS(=O)(=O)C(F)F)[C@@H]1Cc1cc(F)cc(-c2cc(F)cc(F)c2)c1F [Compound 221, 1,1-difluoro-N-((6S,7S)-5-((S)-3-fluoro-2-hydroxypropanoyl)-6-((2,3′,5,5′-tetrafluoro-[1,1′-biphenyl]-3-yl)methyl)-5-azaspiro[2.4]heptan-7-yl)methanesulfonamide]",1 to 10,,90 to 100
"CC[C@@](C)(O)C(=O)N1CC2(CC2)[C@H](NS(=O)(=O)CF)[C@@H]1Cc1cccc(-c2cccc(F)c2)c1F [Compound 379, N-((6S,7S)-6-((2,3′-difluoro-[1,1′-biphenyl]-3-yl)methyl)-5-((R)-2-hydroxy-2-methylbutanoyl)-5-azaspiro[2.4]heptan-7-yl)-1-fluoromethanesulfonamide]",1 to 10,90 to 100,
"COC1CN(C(=O)N2CC3(CC3)[C@H](NS(=O)(=O)CF)[C@@H]2Cc2cccc(-c3cccc(F)c3)c2F)C1 [Compound 400, N-((6S,7S)-6-((2,3′-difluoro-[1,1′-biphenyl]-3-yl)methyl)-5-(3-methoxyazetidine-1-carbonyl)-5-azaspiro[2.4]heptan-7-yl)-1-fluoromethanesulfonamide]",1 to 10,90 to 100,
"C[C@H](O)CN(C)C(=O)N1CC2(CC2)[C@H](NS(C)(=O)=O)[C@@H]1Cc1cccc(-c2ccccc2)c1F [Compound 323, (6S,7S)-6-((2-fluoro-[1,1′-biphenyl]-3-yl)methyl)-N-((S)-2-hydroxypropyl)-N-methyl-7-(methylsulfonamido)-5-azaspiro[2.4]heptane-5-carboxamide]",1 to 10,90 to 100,

# Further lines, with some results ahead:
EC50 [1] [nM],Emax [1] [%],SMILES,Emax [%]
1 to 10,90 to 100,"COC[C@H](C)NC(=O)N1CC2(CC2)[C@H](NS(C)(=O)=O)[C@@H]1Cc1cccc(-c2ccccc2)c1F [Compound 328, (6S,7S)-6-((2-fluoro-[1,1′-biphenyl]-3-yl)methyl)-N-((S)-1-methoxypropan-2-yl)-7-(methylsulfonamido)-5-azaspiro[2.4]heptane-5-carboxamide]",
10 to 100,90 to 100,"COC1CN(C(=O)N2CC3(CC3)C(NS(C)(=O)=O)C2Cc2cccc(-c3ccccc3)c2F)C1 (racemic) [Compound 46, N-(6-((2-fluoro-[1,1′-biphenyl]-3-yl)methyl)-5-(3-methoxyazetidine-1-carbonyl)-5-azaspiro[2.4]heptan-7-yl)methanesulfonamide]",
10 to 100,80 to 90,"COC[C@@H](O)C(=O)N1CC2(CC2)[C@H](NS(C)(=O)=O)[C@@H]1Cc1cccc(-c2ccccc2)c1 [Compound 63, N-((6S,7S)-6-([1,1′-biphenyl]-3-ylmethyl)-5-((R)-2-hydroxy-3-methoxypropanoyl)-5-azaspiro[2.4]heptan-7-yl)methanesulfonamide]",
1 to 10,90 to 100,"O=C([C@H]1CCO1)N1CC2(CC2)[C@H](NS(=O)(=O)C(F)F)[C@@H]1Cc1cccc(-c2cc(F)cc(F)c2)c1 [Compound 214, N-((6S,7S)-6-((3′,5′-difluoro-[1,1′-biphenyl]-3-yl)methyl)-5-((R)-oxetane-2-carbonyl)-5-azaspiro[2.4]heptan-7-yl)-1,1-difluoromethanesulfonamide]",
1 to 10,90 to 100,O=C(NCC(F)F)N1CC2(CC2)[C@H](NS(=O)(=O)C(F)F)[C@@H]1Cc1cc(F)cc(-c2cc(F)cc(F)c2)c1F [Compound 387],
1 to 10,90 to 100,"CS(=O)(=O)N[C@@H]1[C@H](Cc2cccc(-c3ccccc3)c2F)N(C(=O)NC[C@@H]2CCO2)CC12CC2 [Compound 333, (6S,7S)-6-((2-fluoro-[1,1′-biphenyl]-3-yl)methyl)-7-(methylsulfonamido)-N-(((S)-oxetan-2-yl)methyl)-5-azaspiro[2.4]heptane-5-carboxamide]",
0.0794 to 1,90 to 100,"CN(CC(F)F)C(=O)N1CC2(CC2)[C@H](NS(C)(=O)=O)[C@@H]1Cc1cccc(-c2ccccc2)c1F [Compound 81, (6S,7S)-N-(2,2-difluoroethyl)-6-((2-fluoro-[1,1′-biphenyl]-3-yl)methyl)-N-methyl-7-(methylsulfonamido)-5-azaspiro[2.4]heptane-5-carboxamide]",
0.0794 to 1,90 to 100,"CS(=O)(=O)N[C@@H]1[C@H](Cc2cccc(-c3cc(F)cc(F)c3)c2F)N(C(=O)C2CCC2)CC12CC2 [Compound 33, N-((6S,7S)-5-(cyclobutanecarbonyl)-6-((2,3′,5′-trifluoro-[1,1′-biphenyl]-3-yl)methyl)-5-azaspiro[2.4]heptan-7-yl)methanesulfonamide]",
1 to 10,90 to 100,"CS(=O)(=O)N[C@@H]1[C@H](Cc2cccc(-c3ccccc3F)c2F)N(C(=O)[C@H]2CCO2)CC12CC2 [Compound 107, N-((6S,7S)-6-((2,2′-difluoro-[1,1′-biphenyl]-3-yl)methyl)-5-((R)-oxetane-2-carbonyl)-5-azaspiro[2.4]heptan-7-yl)methanesulfonamide]",
